This note sets out measurements from patent US20220304976A1, “Method of simultaneously treating viral disease caused coronavirus, its variants and mutants using a pharmaceutical micronutrient composition” (priority 2021, published 2022).

In test [1] the target is T1, hACE2 receptor (Homo sapiens, UniProt Q9BYF1).
T1 construct: purchased GenScript
The class given is binding.

The test system of test [2] is SARS-CoV-2 spike protein pseudo-typed virions. The test is classed as cell-based.
For test [3] the test system is unchanged. The class given is cell-based. The source holds these as a separate data set.
In test [4] the target is T2, RBD of SARS-CoV-2 spike protein binding to hACE2 receptor (Severe acute respiratory syndrome coronavirus 2, UniProt P0DTC2).
T2 construct: purchased GenScript
Kind of test: biochemical.

Test [5] has as its system IL-6 secretion. The test can be described thus: Interleukin 6 (IL-6) assay in HSAEpC (ELISA). The class given is cell-based, human. As to conditions: LPS 5 mcg/ml.
Description: Interleukin 6 (IL-6) assay: Human Small Airways Epithelial Cells (HSAEpC) were supplied by ATCC and cultured in Small Airways Epithelial Cells culture medium (ATCC). SAEC cells were seeded in six-well plates covered with collagen at 6 passage and grown to confluent layer. […] After 72 hours incubation conditioned media were collected and IL-6 content was measured using R&D Systems Human IL6 ELISA assay in accordance with the manufacture's protocol. Results were calculated with Microsoft Excel software and presented as a percentage of unsupplemented controls (an average of three repetitions+/−standard deviation).

T1 sequence (Q9BYF1 18-740): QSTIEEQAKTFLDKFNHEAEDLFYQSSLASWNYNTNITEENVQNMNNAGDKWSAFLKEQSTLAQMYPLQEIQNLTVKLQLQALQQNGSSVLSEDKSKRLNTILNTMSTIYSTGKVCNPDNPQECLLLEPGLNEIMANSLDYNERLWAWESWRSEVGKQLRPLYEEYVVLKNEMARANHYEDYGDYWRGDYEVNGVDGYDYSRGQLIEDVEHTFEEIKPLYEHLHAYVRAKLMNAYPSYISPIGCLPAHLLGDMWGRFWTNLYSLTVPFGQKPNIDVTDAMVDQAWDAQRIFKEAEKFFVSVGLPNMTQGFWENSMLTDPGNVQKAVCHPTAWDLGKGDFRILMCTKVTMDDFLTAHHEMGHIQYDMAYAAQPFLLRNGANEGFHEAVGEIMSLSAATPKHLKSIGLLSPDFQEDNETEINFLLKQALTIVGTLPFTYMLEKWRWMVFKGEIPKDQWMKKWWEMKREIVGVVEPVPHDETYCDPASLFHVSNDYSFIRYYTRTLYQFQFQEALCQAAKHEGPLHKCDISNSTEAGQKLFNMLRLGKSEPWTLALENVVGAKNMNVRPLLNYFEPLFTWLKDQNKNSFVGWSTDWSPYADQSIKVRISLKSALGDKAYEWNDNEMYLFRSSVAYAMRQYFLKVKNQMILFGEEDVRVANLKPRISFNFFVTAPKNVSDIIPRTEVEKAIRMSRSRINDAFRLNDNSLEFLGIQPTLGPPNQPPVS

Regarding `Oc1ccc2c(c1)OC[C@]1(O)Cc3cc(O)c(O)cc3[C@H]21` [Brazilin], the “binding to the ACE2 receptor itself (in words)” value in test [1] is given as “neither brazilin, nor theaflavin-3,3′-digallate displayed binding affinity”. Besides, in test [1] (Table 3, tested at 0.1 mg/ml), the “Binging with ACE2 (% of control ± SD)” value is recorded as 4.6 ± 2.2 % of control. In test [2], the “inhibition of pseudo-typed virion binding to hACE2/A549 (in words)” value is “similarly inhibited binding”. Moreover, the “concentration from which inhibition of transduction is statistically significant” value in test [3] amounted to 10 µg/mL. In test [4], the “affinity in binding to the RBD-spike protein of SARS-CoV-2 (in words)” value is listed as “exhibited the highest affinity”. Further, the inhibition at 100 µg/mL in test [4] (100 μg/ml, read-out: efficacy in inhibiting RBD binding to hACE2) came to 100%.

For lipopolysaccharide, in test [5], the “increase of IL-6 secretion” value worked out at 43%.
